# Data published in US5840684A, “Glycopeptide antibiotic derivatives” (Eli Lilly and Company, priority 1995, dated 1998).
# Columns and labels:
# [1] = system: Staphylococcus aureus S13E; assay type: cell-based
# Description: (§1) The MIC's were determined using a standard broth micro-dilution assay.
# [2] = system: Staphylococcus aureus SA1199B; assay type: cell-based
# Description: as §1
# [3] = system: Entercoccus faecium 180-1; experiment: broth micro-dilution MIC; assay type: cell-based
# Description: as §1
# [4] = system: Staphylococcus aureus 446; experiment: broth micro-dilution MIC; assay type: cell-based
# Description: as §1
# [5] = system: Staphylococcus aureus 447; experiment: broth micro-dilution MIC; assay type: cell-based
# Description: as §1
# [6] = system: Staphylococcus aureus SA1199A; experiment: broth micro-dilution MIC; assay type: cell-based
# Description: as §1
# [7] = system: Staphylococcus aureus SA1199; experiment: broth micro-dilution MIC; assay type: cell-based
# Description: as §1
# [8] = system: Staphylococcus aureus X400; experiment: broth micro-dilution MIC; assay type: cell-based
# Description: as §1
# [9] = system: Staphylococcus aureus X778; experiment: broth micro-dilution MIC; assay type: cell-based
# Description: as §1
# [10] = system: Streptococcus pyogenes C203; experiment: broth micro-dilution MIC; assay type: cell-based
# Description: as §1
# Entercoccus faecium 180 = experiment: broth micro-dilution MIC; assay type: cell-based; conditions: Entercoccus faecium 180
# Description: (§2) The formula I compounds have in vitro and in vivo activity against Gram-positive pathogenic bacteria. The MIC's were determined using a standard broth micro-dilution assay.
# Entercoccus faecium 2041 = experiment: broth micro-dilution MIC; assay type: cell-based; conditions: Entercoccus faecium 2041
# Description: as §2
# [11] = system: Enterococcus gallinarum 245; experiment: broth micro-dilution MIC; assay type: cell-based; conditions: Enterococcus gallinarum 245
# Description: as §2
# [12] = system: Haemophilus influenzae RD; experiment: broth micro-dilution MIC; assay type: cell-based; conditions: Haemophilus influenzae RD
# Description: as §2
# [13] = system: Staphylococcus haemolyticus 105; experiment: broth micro-dilution MIC; assay type: cell-based
# Description: as §2
# [14] = system: Staphylococcus haemolyticus 415; experiment: broth micro-dilution MIC; assay type: cell-based
# Description: as §2
# [15] = system: Streptococcus pneumoniae P1; experiment: broth micro-dilution MIC; assay type: cell-based
# Description: as §2
# [16] = system: vancomycin-resistant enterococci; experiment: broth micro-dilution, mean geometric MIC; assay type: cell-based, Enterococcus faecium and Enterococcus faecalis; conditions: enterococci, 24-hour incubation
# [17] = system: vancomycin-susceptible enterococci; experiment: broth micro-dilution, mean geometric MIC; assay type: cell-based, Enterococcus faecium and Enterococcus faecalis; conditions: enterococci, 24-hour incubation
# Entercoccus faecium 276 = experiment: broth micro-dilution MIC; assay type: cell-based
# Description: as §1
# [18] = system: Staphylococcus aureus 489; experiment: broth micro-dilution MIC; assay type: cell-based
# Description: as §1
# [19] = system: Staphylococcus epidermidis 270; experiment: broth micro-dilution MIC; assay type: cell-based
# Description: as §2
SMILES,MIC [1] [µg/mL],MIC [2] [µg/mL],MIC [3] [µg/mL],MIC [4] [µg/mL],MIC [5] [µg/mL],MIC [6] [µg/mL],MIC [7] [µg/mL],MIC [8] [µg/mL],MIC [9] [µg/mL],MIC [10] [µg/mL],MIC (Entercoccus faecium 180) [µg/mL],MIC (Entercoccus faecium 2041) [µg/mL],MIC [11] [µg/mL],MIC [12] [µg/mL],MIC [13] [µg/mL],MIC [14] [µg/mL],MIC [15] [µg/mL],"mean geometric MIC, Vancomycin Resistant Strains [16] [µg/mL]","mean geometric MIC, Vancomycin Sensitive Strains [17] [µg/mL]",MIC [18] [µg/mL],other results
CNC(CC(C)C)C(=O)NC1C(=O)NC(CC(N)=O)C(=O)NC2C(=O)NC3C(=O)NC(C(=O)NC(C(=O)O)c4cc(O)cc(O)c4-c4cc3ccc4O)C(OC3CC(C)(N)C(O)C(C)O3)c3ccc(c(Cl)c3)Oc3cc2cc(c3OC2OC(CO)C(O)C(O)C2OC2CC(C)(NCc3ccc(-c4ccc(C)c(C)c4)cc3)C(O)C(C)O2)Oc2ccc(cc2Cl)C1O (stereo not shown) [Compound 221],0.5,1,≤ 0.06,1,0.5,≤ 0.06,1,0.5,0.5,≤ 0.06,≤ 0.06,≤ 0.06,2,32,1,2,≤ 0.06,0.71,0.041,,
CNC(CC(C)C)C(=O)NC1C(=O)NC(CC(N)=O)C(=O)NC2C(=O)NC3C(=O)NC(C(=O)NC(C(=O)O)c4cc(O)cc(O)c4-c4cc3ccc4O)C(OC3CC(C)(N)C(O)C(C)O3)c3ccc(c(Cl)c3)Oc3cc2cc(c3OC2OC(CO)C(O)C(O)C2OC2CC(C)(NCCCCCCCCOc3ccc(OC)cc3)C(O)C(C)O2)Oc2ccc(cc2Cl)C1O (stereo not shown) [Compound 200],0.5,1,≤ 0.06,1,0.5,≤ 0.06,1,1,0.5,≤ 0.06,,≤ 0.06,2,32,1,2,≤ 0.06,1.4,0.041,,MIC (Entercoccus faecium 276): 0.5 µg/mL
CNC(CC(C)C)C(=O)NC1C(=O)NC(CC(N)=O)C(=O)NC2C(=O)NC3C(=O)NC(C(=O)NC(C(=O)O)c4cc(O)cc(O)c4-c4cc3ccc4O)C(OC3CC(C)(N)C(O)C(C)O3)c3ccc(c(Cl)c3)Oc3cc2cc(c3OC2OC(CO)C(O)C(O)C2OC2CC(C)(NCc3ccc(OC(F)F)cc3)C(O)C(C)O2)Oc2ccc(cc2Cl)C1O (stereo not shown) [Compound 72],≤ 0.06,≤ 0.06,≤ 0.06,2,1,≤ 0.06,1,,,,0.5,≤ 0.06,4,32,1,4,,4.7,0.28,≤ 0.06,MIC (Entercoccus faecium 276): ≤ 0.06 µg/mL
CNC(CC(C)C)C(=O)NC1C(=O)NC(CC(N)=O)C(=O)NC2C(=O)NC3C(=O)NC(C(=O)NC(C(=O)O)c4cc(O)cc(O)c4-c4cc3ccc4O)C(OC3CC(C)(N)C(O)C(C)O3)c3ccc(c(Cl)c3)Oc3cc2cc(c3OC2OC(CO)C(O)C(O)C2OC2CC(C)(NCCc3ccc4ccccc4c3)C(O)C(C)O2)Oc2ccc(cc2Cl)C1O (stereo not shown) [Compound 179],,,≤ 0.06,,,≤ 0.06,1,≤ 0.06,≤ 0.06,≤ 0.06,≤ 0.06,≤ 0.06,1,4,0.5,1,≤ 0.06,1.7,0.060,≤ 0.06,MIC (Entercoccus faecium 276): ≤ 0.06 µg/mL
C=CCCCOc1ccc(CNC2(C)CC(OC3C(Oc4c5cc6cc4Oc4ccc(cc4Cl)C(OC4CC(C)(N)C(O)C(C)O4)C4NC(=O)C(NC(=O)C6NC(=O)C(CC(N)=O)NC(=O)C(NC(=O)C(CC(C)C)NC)C(O)c6ccc(c(Cl)c6)O5)c5ccc(O)c(c5)-c5c(O)cc(O)cc5C(C(=O)O)NC4=O)OC(CO)C(O)C3O)OC(C)C2O)cc1 (stereo not shown) [Compound 226],0.5,1,≤ 0.06,1,0.5,,1,,,≤ 0.06,≤ 0.06,≤ 0.06,1,32,2,1,≤ 0.06,1.6,0.041,0.5,MIC [19]: 1 µg/mL
CNC(CC(C)C)C(=O)NC1C(=O)NC(CC(N)=O)C(=O)NC2C(=O)NC3C(=O)NC(C(=O)NC(C(=O)O)c4cc(O)cc(O)c4-c4cc3ccc4O)C(OC3CC(C)(N)C(O)C(C)O3)c3ccc(c(Cl)c3)Oc3cc2cc(c3OC2OC(CO)C(O)C(O)C2OC2CC(C)(NCc3ccc(-c4ccccc4C)cc3)C(O)C(C)O2)Oc2ccc(cc2Cl)C1O (stereo not shown) [Compound 209],0.5,0.5,≤ 0.06,1,1,≤ 0.06,,1,1,≤ 0.06,≤ 0.06,≤ 0.06,1,16,0.5,1,≤ 0.06,1.2,0.136,1,MIC [19]: 0.15 µg/mL
CNC(CC(C)C)C(=O)NC1C(=O)NC(CC(N)=O)C(=O)NC2C(=O)NC3C(=O)NC(C(=O)NC(C(=O)O)c4cc(O)cc(O)c4-c4cc3ccc4O)C(OC3CC(C)(N)C(O)C(C)O3)c3ccc(c(Cl)c3)Oc3cc2cc(c3OC2OC(CO)C(O)C(O)C2OC2CC(C)(NCc3c(OC)ccc4ccccc34)C(O)C(C)O2)Oc2ccc(cc2Cl)C1O (stereo not shown) [Compound 9],0.5,,≤ 0.06,2,4,≤ 0.06,,0.5,,≤ 0.06,1,,,≤ 0.06,4,4,≤ 0.06,11,0.38,0.5,MIC (Entercoccus faecium 276): 0.26 µg/mL; MIC [19]: 16 µg/mL
